Results as given in PubChem BioAssay (NCI).
Several values for one entry are separate records, joined by “and”; a condition that tells them apart may be missing. Identical values can stand only once.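 96-well plates; 48 h exposure; 5 concentrations. Endpoints by linear interpolation between flanking doses. Not reached: highest tested concentration assigned. GI50: concentration for 50% inhibition of growth. The concentration for full growth arrest is given as TGI.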

How the values were obtained:
Assay in all cases: NCI anticancer screen, dose series, 48 h
SF-268 CNS = tested on: SF-268 CNS
RPMI-8226 leukemia = tested on: RPMI-8226 leukemia
IGROV1 ovarian = tested on: IGROV1 ovarian
SK-MEL-5 melanoma = tested on: SK-MEL-5 melanoma
NCI-H226 lung = tested on: NCI-H226 lung
KM12 colon = tested on: KM12 colon
NCI-H522 lung = tested on: NCI-H522 lung
UACC-257 melanoma = tested on: UACC-257 melanoma
COLO 205 colon = tested on: COLO 205 colon
UO-31 renal = tested on: UO-31 renal

| SMILES | GI50 (SF-268 CNS) | TGI (SF-268 CNS) | GI50 (RPMI-8226 leukemia) | TGI (RPMI-8226 leukemia) | GI50 (IGROV1 ovarian) | TGI (IGROV1 ovarian) | GI50 (SK-MEL-5 melanoma) | TGI (SK-MEL-5 melanoma) | GI50 (NCI-H226 lung) | TGI (NCI-H226 lung) | GI50 (KM12 colon) | TGI (KM12 colon) | GI50 (NCI-H522 lung) | TGI (NCI-H522 lung) | GI50 (UACC-257 melanoma) | TGI (UACC-257 melanoma) | GI50 (COLO 205 colon) | TGI (COLO 205 colon) | GI50 (UO-31 renal) | TGI (UO-31 renal) |
| --- | --- | --- | --- | --- | --- | --- | --- | --- | --- | --- | --- | --- | --- | --- | --- | --- | --- | --- | --- | --- |
| O=C(/C=C\c1cccc([N+](=O)[O-])c1)c1ccccc1 | 5.46 µM | 20.5 µM | 1.07 µM | > 100 µM | 2.62 µM | > 28.6 µM | 6.97 µM | 20.2 µM | 18.7 µM | 45.9 µM | 2.36 µM | 5.41 µM | 1.46 µM | 3.93 µM | 4.85 µM | 12.4 µM | 2.04 µM | 4.12 µM | 1.79 µM | 4.11 µM |
| S=C(Nc1ccc(-c2nc3ccccc3s2)cc1)Nc1ccccn1 | 46.6 µM | > 100 µM | 33.8 µM | > 100 µM | 29.8 µM | > 78.1 µM | 17.2 µM | 36.2 µM | 26.4 µM | > 76.2 µM | 21.9 µM | > 70.8 µM | 24.7 µM | > 61.3 µM | 31.8 µM | > 72 µM | 18.9 µM | 42.3 µM | 19.6 µM | > 68.9 µM |
| C[C@H]1O[C@@H](O[C@H]2[C@@H](O)C[C@H](O[C@H]3[C@@H](O)C[C@H](O[C@H]4CC[C@]5(C)C6C[C@@H](O)[C@]7(C)[C@@H](C8=CC(=O)OC8)CC[C@]7(O)C6CC[C@@H]5C4)O[C@@H]3C)O[C@@H]2C)C[C@H](O)[C@@H]1O (some centres undefined) | 0.0253 µM | 0.083 µM | 0.117 µM | 0.377 µM | 0.145 µM | 3.45 µM | 0.0478 µM | 0.122 µM | 0.102 µM | 0.191 µM | 0.144 µM | 0.544 µM | 0.015 µM | 0.0695 µM | 0.101 µM | 0.237 µM | 0.146 µM | 0.374 µM | 0.0836 µM | 0.166 µM |
| O=[N+]([O-])c1ccc(Oc2cccnc2)c([N+](=O)[O-])c1 | 4.2 µM | 36.4 µM | 4.07 µM | 62.6 µM | 3.95 µM | > 100 µM | 3.04 µM | 11.6 µM | 2.97 µM | 25.5 µM | 2.69 µM | 6.68 µM | 3.02 µM | 9.55 µM | 8.81 µM | 22.3 µM | 2.35 µM | 4.39 µM | 3.07 µM | 16.8 µM |
| Cc1oncc1C(=O)Nc1ccc(C(F)(F)F)cc1 | 23 µM | > 100 µM | 17.5 µM | > 100 µM | 26.7 µM | > 100 µM | 29.3 µM | > 100 µM | 35.1 µM | > 100 µM | 35.8 µM | > 100 µM | 33.6 µM | > 100 µM | 26.9 µM | > 100 µM | > 100 µM | > 100 µM | 12.6 µM | > 100 µM |
| CCNC(=O)Nc1ccc(-c2nc3c(c(N4CCOC[C@@H]4C)n2)CCN(C2COC2)C3)cc1 | 0.591 µM and 0.29 µM | > 100 µM | 0.286 µM and 0.218 µM | 49 µM and > 8.49 µM | 0.115 µM and 0.071 µM | 5.38 µM and 0.751 µM | 0.317 µM and 0.331 µM | 8.52 µM and 2.56 µM | 0.247 µM and 0.119 µM |  | 0.507 µM and 0.403 µM | > 100 µM | 0.181 µM and 0.159 µM | > 24.2 µM and 6.18 µM | 0.232 µM and 0.287 µM | 2.74 µM and 3.92 µM | 0.289 µM and 0.268 µM | > 100 µM | 0.101 µM and 0.0801 µM | 2.39 µM and 1.45 µM |
| C=CC[Se]C(=O)c1ccccc1OC(C)=O | 2.49 µM | 6.5 µM | 2.22 µM | 5.71 µM | 1.7 µM | 3.11 µM | 1.94 µM | 4.09 µM | 2.62 µM | 6.44 µM | 0.947 µM | 2.52 µM | 1.93 µM | 4.62 µM | 2.09 µM | 5 µM | 2.25 µM | 5.01 µM | 1.48 µM | 2.81 µM |
| COc1cc(-c2nn(C)nc2-c2cc3ccccc3s2)cc(OC)c1OC | 0.638 µM | > 100 µM | 0.362 µM | > 100 µM | 0.707 µM | > 100 µM | 0.225 µM | > 100 µM | > 100 µM | > 100 µM | 0.0549 µM | > 100 µM | 0.0232 µM | 0.0787 µM | 51.5 µM | > 100 µM | 0.082 µM | 0.515 µM | 0.744 µM | > 100 µM |
| CNC(=O)c1cc(Oc2ccc3nc(NC(=O)c4cc(C(F)(F)F)cc(C(F)(F)F)c4)sc3c2)ccn1 | 2.66 µM | 17 µM | 2.42 µM | > 100 µM | 4.26 µM | 27 µM | 1.68 µM | 3.63 µM | 4.15 µM | 17.4 µM | 2.7 µM | 11 µM | 2.82 µM | 8.77 µM | 2.89 µM | 8.12 µM | 2.82 µM | 8.21 µM | 2.19 µM | 8.95 µM |
